pEC50: −log10 of the molar value.
test system: γ-secretase; assay: Cellular γ-secretase assay (inhibition of Aβ42 secretion, AlphaLisa); format: cell-based; details: Human neuroglioma H4 cells overexpressing human APP695 Swedish double mutation; 24 hr compound incubation; secreted Aβ42 in supernatant
Description: Cellular γ-Secretase Assay
Human neuroglioma H4 cells overexpressing human APP695 with the Swedish double mutation (K595N/M596L) were plated at 30,000 cells/well/100 μl in 96-well plates in IMDM media containing 10% FCS, 0.2 mg/l Hygromycin B and incubated at 37° C., 5% CO2.
3-4 hr post plating, compounds are a diluted in media and 50 μl is added as 1.5-fold concentrate to achieve the final concentration. Compound incubation is performed for 24 hr. Final doses typically range from 4 μM down to 0.0013 μM in half-log steps resulting in a eight point dose response curve.
Appropriate controls using vehicle only and reference compound were applied to this assay. The final concentration of Me2SO was 0.4%.
After incubation at 37° C., 5% CO2, the supernatant was subjected to quantification of secreted Aβ42 by the means of an AlphaLisa assay kit (Human Amyloid beta 1-42 Kit: Cat # AL203C, Perkin Elmer). 20 μl of the cell culture supernatant was transferred to an assay plate. Then 10 μl of a mixture of the AlphaLisa coupled capture antibody and the biotinylated detection antibody was added and incubated for 3 hours at room temperature while softly shaking the assay plate. After a further addition of 20 μl of the Donor beads the assay plate was incubated for 30 min at room temperature and constant shaking without exposure to direct light.
The assay plate was then read on a Paradigm AlphaLisa Reader using the build-in program with excitation at 680 nm and emission at […].
The measured signals were then used to calculate IC50 values for inhibition of Aβ42 secretion by nonlinear regression fit analysis using XLfit 5.3 software (IDBS).

pEC50	SMILES
7.63	Cc1cc(N2C[C@H]3CC[C@@H](C2)[C@@H]3Nc2nc3n(n2)CCCCN3c2ccc(F)c(F)c2)ncn1 [Example 23, 4-(3,4-difluorophenyl)-N-[(1R,5S,8S)-3-(6-methylpyrimidin-4-yl)-3-azabicyclo[3.2.1]octan-8-yl]-5,6,7,8-tetrahydro-[1,2,4]triazolo[1,5-a][1,3]diazepin-2-amine]
7.09	COc1cc(N2C[C@H]3CC[C@@H](C2)[C@@H]3Nc2nc3n(n2)CCCCN3c2ccc(F)c(F)c2)ncn1 [Example 24, 4-(3,4-difluorophenyl)-N-[(1R,5S,8S)-3-(6-methoxypyrimidin-4-yl)-3-azabicyclo[3.2.1]octan-8-yl]-5,6,7,8-tetrahydro-[1,2,4]triazolo[1,5-a][1,3]diazepin-2-amine]
7.63	Fc1ccc(N2CCCCn3nc(N[C@@H]4[C@@H]5CC[C@H]4CN(c4cnnc(Cl)c4)C5)nc32)cc1F [Example 25, N-[(1R,5S,8S)-3-(6-chloropyridazin-4-yl)-3-azabicyclo[3.2.1]octan-8-yl]-4-(3,4-difluorophenyl)-5,6,7,8-tetrahydro-[1,2,4]triazolo[1,5-a][1,3]diazepin-2-amine]
